What was measured:
[1] = tested on: rabbit serum obtained by immunizing a rabbit with the SARS-CoV strain Frankfurt 1; format: binding; set-up: Binding of a rabbit serum to linear peptides / Binding of a rabbit serum to looped peptides / Rabbit serum linear peptides / Rabbit serum looped peptides / Binding of a rabbit serum to linear peptides of protein N of SARS-CoV Urbani (Rabbit serum linear peptides) / Binding of a rabbit serum to looped/cyclic peptides of protein N of SARS-CoV Urbani (Rabbit serum looped peptides): unit not given here
[2] = tested on: control sera (pooled serum of ten healthy LUMC hospital workers; commercial negative donor pooled serum from the Dutch bloodbank); format: binding, human; set-up: Binding of Control serum LUMC to linear peptides / Binding of Control serum Blood-bank to linear peptides / Binding of Control serum LUMC to looped peptides / Binding of Control Serum Blood-Bank to Looped peptides / Binding of Control serum LUMC to linear peptides of the protein M of SARS-CoV Urbani / Binding of Control serum Blood-bank to linear peptides of the protein M of SARS-CoV Urbani / Binding of Control serum LUMC to looped peptides of the protein M of SARS-CoV Urbani / Binding of Control Serum Blood-Bank to Looped peptides of the protein M of SARS-CoV Urbani: unit not given here
[3] = tested on: antibodies in sera from SARS patients (sera 1a, 1b, 2, 6, 37, 62, London, SARS-yellow, SARS-green); format: binding, human; set-up: Binding of serum 6 to linear peptides of protein X1 of SARS-CoV Urbani / Binding of serum 37 to linear peptides of protein X1 of SARS-CoV Urbani / Binding of serum 6 to looped/cyclic peptide (PEPSCAN-ELISA) / Binding of serum 37 to looped/cyclic peptide (PEPSCAN-ELISA) / Binding of serum 37 to looped/cyclic peptides of protein X1 of SARS-CoV Urbani / Binding of serum 6 to linear peptides of protein X2 / Binding of serum 37 to linear peptides of protein X2 / Binding of serum 37 to looped/cyclic peptides of protein X2 of SARS-CoV Urbani / Binding of serum 6 to linear peptides of protein M of SARS-CoV Urbani / Binding of serum 37 to linear peptides of protein M of SARS-CoV Urbani / Binding of serum 6 to looped/cyclic peptides of protein M of SARS-CoV Urbani / Binding of serum 37 to looped/cyclic peptides of protein M of SARS-CoV Urbani / Binding of serum 6 to linear peptides of protein X3 of SARS-CoV Urbani / Binding of serum 37 to linear peptides of protein X3 of SARS-CoV Urbani / Binding of serum 37 to looped/cyclic peptides of protein X3 of SARS-CoV Urbani / Binding of serum 6 to linear peptides of protein X4 of SARS-CoV Urbani / Binding of serum 37 to linear peptides of protein X4 of SARS-CoV Urbani / Binding of serum 37 to looped/cyclic peptides of protein X4 of SARS-CoV Urbani / Binding of serum 6 to linear peptides of protein X5 of SARS-CoV Urbani / Binding of serum 37 to linear peptides of protein X5 of SARS-CoV Urbani / Binding of serum 37 to looped/cyclic peptides of protein X5 of SARS-CoV Urbani / Binding of serum 6 to linear peptides of protein N of SARS-CoV Urbani / Binding of serum 37 to linear peptides of protein N of SARS-CoV Urbani / Binding of serum 6 to linear peptide (PEPSCAN-ELISA) / Binding of serum 1a to looped/cyclic peptides of protein N of SARS-CoV Urbani / Binding of serum 1b to looped/cyclic peptides of protein N of SARS-CoV Urbani / Binding of serum 2 to looped/cyclic peptides of protein N of SARS-CoV Urbani / Binding of serum 6 to looped/cyclic peptides of protein N of SARS-CoV Urbani / Binding of serum 37 to looped/cyclic peptides of protein N of SARS-CoV Urbani / Binding of serum 62 to looped/cyclic peptides of protein N of SARS-CoV Urbani / Binding of serum London to looped/cyclic peptides of protein N of SARS-CoV Urbani / Binding of serum SARS-green to looped/cyclic peptides of protein N of SARS-CoV Urbani: unit not given here

## LNKRWQLALYKGFQF
[1]
  Recognition of the peptide by the rabbit serum: recognized
[2]
  Binding of Control Serum Blood-Bank to Looped peptides: 0.6
  Binding of Control serum Blood-bank to linear peptides: 0.8
  Binding of Control serum LUMC to linear peptides: 0.6
  Binding of Control serum LUMC to looped peptides: 0.6
[3]
  Binding of serum 1a to linear peptides of protein X1 of SARS-CoV Urbani: 0.6
  Binding of serum 1a to looped/cyclic peptide (PEPSCAN-ELISA): 0.6
  Binding of serum 1b to linear peptides of protein X1 of SARS-CoV Urbani: 0.7
  Binding of serum 1b to looped/cyclic peptide (PEPSCAN-ELISA): 0.4
  Binding of serum 2 to linear peptides of protein X1 of SARS-CoV Urbani: 0.8
  Binding of serum 2 to looped/cyclic peptide (PEPSCAN-ELISA): 0.5
  Binding of serum 6 to linear peptides of protein X1 of SARS-CoV Urbani: 0.8
  Binding of serum 6 to looped/cyclic peptide (PEPSCAN-ELISA): 0.5
  Binding of serum 37 to linear peptides of protein X1 of SARS-CoV Urbani: 0.6
  Binding of serum 37 to looped/cyclic peptide (PEPSCAN-ELISA): 0.5
  Binding of serum 62 to linear peptides of protein X1 of SARS-CoV Urbani: 0.6
  Binding of serum 62 to looped/cyclic peptide (PEPSCAN-ELISA): 0.6
  Binding of serum London to linear peptides of protein X1 of SARS-CoV Urbani: 0.3
  Binding of serum London to looped/cyclic peptide (PEPSCAN-ELISA): 0.3
  Binding of serum SARS-green to linear peptides of protein X1 of SARS-CoV Urbani: 0.3
  Binding of serum SARS-green to looped/cyclic peptide (PEPSCAN-ELISA): 0.1
  Binding of serum SARS-yellow to linear peptides of protein X1 of SARS-CoV Urbani: 0.3
  Binding of serum SARS-yellow to looped/cyclic peptide (PEPSCAN-ELISA): 0.4

## LNVPLRGTIVTRPLM
[1]
  Rabbit serum linear peptides: 0.2
  Rabbit serum looped peptides: 0.4
[2]
  Binding of Control Serum Blood-Bank to Looped peptides of the protein M of SARS-CoV Urbani: 0.6
  Binding of Control serum Blood-bank to linear peptides of the protein M of SARS-CoV Urbani: 0.7
  Binding of Control serum LUMC to linear peptides of the protein M of SARS-CoV Urbani: 0.5
  Binding of Control serum LUMC to looped peptides of the protein M of SARS-CoV Urbani: 0.7
[3]
  Binding of serum 1a to linear peptides of protein M of SARS-CoV Urbani: 0.7
  Binding of serum 1b to linear peptides of protein M of SARS-CoV Urbani: 0.5
  Binding of serum 2 to linear peptides of protein M of SARS-CoV Urbani: 0.6
  Binding of serum 6 to linear peptides of protein M of SARS-CoV Urbani: 0.5
  Binding of serum 37 to linear peptides of protein M of SARS-CoV Urbani: 0.5
  Binding of serum 62 to linear peptides of protein M of SARS-CoV Urbani: 0.5
  Binding of serum London to linear peptides of protein M of SARS-CoV Urbani: 0.4
  Binding of serum SARS-green to linear peptides of protein M of SARS-CoV Urbani: 0.4
  Binding of serum SARS-yellow to linear peptides of protein M of SARS-CoV Urbani: 0.1
  Recognition of the peptide by sera of SARS-CoV infected individuals, and form (linear, looped/cyclic) in which it is recognized: recognized in looped/cyclic form

## LPKEITVATSRTLSY
[1]
  Rabbit serum linear peptides: 0.2
  Rabbit serum looped peptides: 0.2
[2]
  Binding of Control Serum Blood-Bank to Looped peptides of the protein M of SARS-CoV Urbani: 0.6
  Binding of Control serum Blood-bank to linear peptides of the protein M of SARS-CoV Urbani: 0.8
  Binding of Control serum LUMC to linear peptides of the protein M of SARS-CoV Urbani: 0.7
  Binding of Control serum LUMC to looped peptides of the protein M of SARS-CoV Urbani: 0.6
[3]
  Binding of serum 1a to linear peptides of protein M of SARS-CoV Urbani: 0.7
  Binding of serum 1a to looped/cyclic peptides of protein M of SARS-CoV Urbani: 0.6
  Binding of serum 1b to linear peptides of protein M of SARS-CoV Urbani: 0.5
  Binding of serum 1b to looped/cyclic peptides of protein M of SARS-CoV Urbani: 0.4
  Binding of serum 2 to linear peptides of protein M of SARS-CoV Urbani: 0.6
  Binding of serum 2 to looped/cyclic peptides of protein M of SARS-CoV Urbani: 0.6
  Binding of serum 6 to linear peptides of protein M of SARS-CoV Urbani: 0.4
  Binding of serum 6 to looped/cyclic peptides of protein M of SARS-CoV Urbani: 0.6
  Binding of serum 37 to linear peptides of protein M of SARS-CoV Urbani: 0.4
  Binding of serum 37 to looped/cyclic peptides of protein M of SARS-CoV Urbani: 0.6
  Binding of serum 62 to linear peptides of protein M of SARS-CoV Urbani: 0.5
  Binding of serum 62 to looped/cyclic peptides of protein M of SARS-CoV Urbani: 0.5
  Binding of serum London to linear peptides of protein M of SARS-CoV Urbani: 0.3
  Binding of serum London to looped/cyclic peptides of protein M of SARS-CoV Urbani: 0.2
  Binding of serum SARS-green to linear peptides of protein M of SARS-CoV Urbani: 0.4
  Binding of serum SARS-green to looped/cyclic peptides of protein M of SARS-CoV Urbani: 0.3
  Binding of serum SARS-yellow to linear peptides of protein M of SARS-CoV Urbani: 0.2
  Binding of serum SARS-yellow to looped/cyclic peptides of protein M of SARS-CoV Urbani: 0.5

Reference: patent US20070128217A1 (priority 2003, published 2007)
